Measured values: ChEMBL document CHEMBL5154828 (J Med Chem, 2022)

Assays:
MCF7 = test: Antiproliferative activity against human MCF7 cells assessed as inhibition of cell growth measured after 6 days by cell titre glo luminescence assay; details: MCF7, 144 h
[1] = molecular target: Voltage-gated inwardly rectifying potassium channel KCNH2 (Homo sapiens, UniProt Q12809); test: Inhibition of human ERG potassium channel expressed in CHO cells by patch-clamp assay; type: toxicity, cell-based
Estrogen receptor [2] = molecular target: T1, Estrogen receptor (Homo sapiens, UniProt P03372); test: Induction of ERalpha degradation in human MCF7 cells incubated for 24 hrs by Western blot analysis; type: cell-based
T1 sequence (P03372 whole entry): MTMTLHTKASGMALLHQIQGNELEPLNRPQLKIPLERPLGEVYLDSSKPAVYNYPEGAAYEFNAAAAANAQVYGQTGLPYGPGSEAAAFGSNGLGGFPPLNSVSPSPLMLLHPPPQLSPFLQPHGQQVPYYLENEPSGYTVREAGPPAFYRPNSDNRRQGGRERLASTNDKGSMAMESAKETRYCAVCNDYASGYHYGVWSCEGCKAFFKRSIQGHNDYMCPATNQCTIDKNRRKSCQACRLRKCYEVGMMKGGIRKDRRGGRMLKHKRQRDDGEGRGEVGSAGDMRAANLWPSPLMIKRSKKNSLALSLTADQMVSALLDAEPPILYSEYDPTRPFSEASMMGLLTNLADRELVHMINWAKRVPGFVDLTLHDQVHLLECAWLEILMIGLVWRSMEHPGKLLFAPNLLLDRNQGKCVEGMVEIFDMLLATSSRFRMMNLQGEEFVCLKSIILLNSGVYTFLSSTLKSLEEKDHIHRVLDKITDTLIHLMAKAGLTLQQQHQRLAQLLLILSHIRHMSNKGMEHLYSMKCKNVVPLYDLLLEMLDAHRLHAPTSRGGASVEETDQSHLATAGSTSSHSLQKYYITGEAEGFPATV

Estrogen receptor [3] = molecular target: T1, Estrogen receptor; test: Antagonist activity at ERalpha expressed in HEK293/Gal4 cells incubated for 24 hrs in presence of estradiol by luciferase reporter gene assay; type: cell-based

Voltage-gated inwardly rectifying potassium channel KCNH2, sequence (Q12809 whole entry): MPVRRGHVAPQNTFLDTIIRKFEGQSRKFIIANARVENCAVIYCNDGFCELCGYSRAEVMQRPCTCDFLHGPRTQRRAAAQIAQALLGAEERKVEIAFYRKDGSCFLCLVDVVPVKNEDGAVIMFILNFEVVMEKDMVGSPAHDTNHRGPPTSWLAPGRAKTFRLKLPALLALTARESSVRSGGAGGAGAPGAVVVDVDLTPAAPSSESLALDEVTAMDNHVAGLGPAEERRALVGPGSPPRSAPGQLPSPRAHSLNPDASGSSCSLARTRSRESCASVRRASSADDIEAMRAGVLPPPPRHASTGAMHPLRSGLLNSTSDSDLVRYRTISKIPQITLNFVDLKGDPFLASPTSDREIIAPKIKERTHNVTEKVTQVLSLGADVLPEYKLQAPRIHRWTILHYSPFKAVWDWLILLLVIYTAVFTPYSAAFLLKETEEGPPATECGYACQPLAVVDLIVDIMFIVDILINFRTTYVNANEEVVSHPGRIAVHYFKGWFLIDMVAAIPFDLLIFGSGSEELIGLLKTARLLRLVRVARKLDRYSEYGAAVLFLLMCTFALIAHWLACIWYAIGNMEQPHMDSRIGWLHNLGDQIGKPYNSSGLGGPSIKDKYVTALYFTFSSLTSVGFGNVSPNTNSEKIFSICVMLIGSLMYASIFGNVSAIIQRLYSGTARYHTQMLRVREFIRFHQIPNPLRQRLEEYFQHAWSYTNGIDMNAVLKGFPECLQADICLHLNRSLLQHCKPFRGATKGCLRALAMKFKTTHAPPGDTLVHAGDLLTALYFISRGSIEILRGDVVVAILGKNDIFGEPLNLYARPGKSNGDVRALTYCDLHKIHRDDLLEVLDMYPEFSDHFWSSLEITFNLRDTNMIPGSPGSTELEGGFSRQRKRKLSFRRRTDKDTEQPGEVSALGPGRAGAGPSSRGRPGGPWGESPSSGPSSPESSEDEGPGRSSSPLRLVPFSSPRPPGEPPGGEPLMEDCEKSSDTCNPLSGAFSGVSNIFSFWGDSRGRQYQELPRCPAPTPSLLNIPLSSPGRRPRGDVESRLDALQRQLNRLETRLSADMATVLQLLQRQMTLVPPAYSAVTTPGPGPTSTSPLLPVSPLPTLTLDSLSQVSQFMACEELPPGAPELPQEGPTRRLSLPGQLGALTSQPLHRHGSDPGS

Row | Compound | IC50 (MCF7) [nM] | IC50 [1] [nM] | EC50 (Estrogen receptor [2]) [nM] | IC50 (Estrogen receptor [3]) [nM]
1 | FCCCN1CC(Oc2ccc(Oc3c(-c4ccc(F)cc4C4(F)CC4)sc4c3ccc3[nH]ncc34)cc2)C1 | 5.3 | – | – | –
2 | CC(C)(F)c1cc(F)ccc1-c1sc2c(ccc3[nH]ncc32)c1Oc1ccc(NC2CN(CCCF)C2)cc1 | – | 6200 | – | –
3 | CC(c1cc(F)ccc1-c1sc2c(ccc3[nH]ncc32)c1Oc1ccc(OC2CN(CCCF)C2)cc1)C(F)(F)F (stereo not given) | 2.2 | – | 2.5 | –
4 | CC(F)(F)c1cc(F)ccc1-c1sc2cc3[nH]ncc3cc2c1Oc1ccc(/C=C/C(=O)O)cc1 | 483 | – | – | –
5 | CC(F)(F)c1cc(Cl)ccc1-c1sc2c(ccc3[nH]ncc32)c1Oc1ccc(OC[C@H]2CCCN2CCCF)cc1 | 8.3 | – | > 1000 | –
6 | CC(F)(F)c1cc(Cl)ccc1-c1sc2c(ccc3[nH]ncc32)c1Oc1ccc(O[C@@H]2CCN(CCCF)C2)cc1 | 2.6 | – | 0.7 | –
7 | CC(F)(F)c1cc(F)ccc1-c1sc2c(ccc3[nH]ncc32)c1-c1ccc(OCCN2CC(CF)C2)cc1 | > 1000 | – | – | –
8 | CC(F)(F)c1cc(Cl)ccc1-c1sc2c(ccc3[nH]ncc32)c1Oc1ccc(S(=O)(=O)C2CN(CCCF)C2)cc1 | 33.9 | – | – | –
9 | Cc1cc(C(F)(F)F)ncc1-c1sc2c(ccc3[nH]ncc32)c1Oc1ccc(OCCN2CC(CF)C2)cc1 | 623 | – | – | –
10 | CC(F)(F)c1cc(F)ccc1-c1sc2cc(B(O)O)ccc2c1Oc1ccc(OCCN2CC[C@@H](CF)C2)cc1 | 1.5 | – | 2.2 | –
11 | CC(F)(F)c1cc(F)ccc1-c1sc2c(ccc3[nH]ncc32)c1Oc1ccc(S(=O)(=O)CCN2CC(CF)C2)cc1 | 5.9 | – | > 1000 | –
12 | CC(F)(F)c1cc(F)ccc1-c1sc2c(ccc3[nH]ncc32)c1Oc1ccc(CCN2CC(CF)C2)cc1 | 14.7 | – | – | –
13 | CC(F)(F)c1cc(F)ccc1-c1sc2c(ccc3[nH]ncc32)c1Oc1ccc(/C=C/C(=O)O)cc1 | 26.6 | – | – | –
14 | CC(F)(F)c1cc(F)ccc1-c1sc2cc(B(O)O)ccc2c1Oc1ccc(/C=C/C(=O)O)cc1 | 23.9 | – | – | –
15 | CC(F)(F)c1cc(F)ccc1-c1sc2c(ccc3[nH]ncc32)c1Oc1ccc(OCCN2CC(CF)C2)cc1 | 1.1 | – | 0.9 | –
16 | CC(F)(F)c1cc(F)ccc1-c1sc2c(ccc3[nH]ncc32)c1Oc1ccc(NC2CN(CCCF)C2)c(C(F)(F)F)c1 | 6.2 | – | – | –
17 | COc1cc(Oc2c(-c3ccc(F)cc3C(C)(F)F)sc3c2ccc2[nH]ncc23)ccc1NC1CN(CCCF)C1 | – | 11500 | – | –
18 | CC(F)(F)c1cc(F)ccc1-c1sc2c(ccc3[nH]ncc32)c1Oc1ccc(OCCN2CC(CC#N)C2)cc1 | 2.4 | – | 0.4 | –
19 | CC(F)(F)c1cc(Cl)ccc1-c1sc2cc(C(=O)O)ccc2c1Oc1ccc(O[C@@H]2CCN(CCCF)C2)cc1 | 4.2 | – | 1 | –
20 | COc1cc(Oc2c(-c3cc(F)c(F)cc3C(C)(F)F)sc3c2ccc2[nH]ncc23)ccc1OC1CN(CCCF)C1 | 1.2 | – | 3 | 1.4
21 | CC(F)(F)c1cc(Cl)ccc1-c1sc2cc(C(=O)O)ccc2c1Oc1ccc(OC2CN(CCCF)C2)cc1 | 34.7 | – | 3.9 | –
22 | CC(F)(F)c1cc(F)ccc1-c1sc2c(ccc3[nH]ncc32)c1Oc1c(F)cc(OCCN2CC(CF)C2)cc1F | 15.1 | – | – | –
23 | CC(F)(F)c1cc(F)ccc1-c1sc2cc(B(O)O)ccc2c1Oc1ccc(OCCN2CCC(F)CC2)cc1 | 19.4 | – | – | –
24 | FCCCN1CC(Oc2ccc(Oc3c(-c4ccc(F)cc4CC(F)(F)F)sc4c3ccc3[nH]ncc34)cc2F)C1 | – | > 40000 | – | –
25 | CC(F)(F)c1cc(F)c(F)cc1-c1sc2c(ccc3[nH]ncc32)c1Oc1ccc(OC2CN(CCCF)C2)cc1 | 1.6 | – | 3.4 | 2.5
26 | CC(C)(c1cc(F)ccc1-c1sc2c(ccc3[nH]ncc32)c1Oc1ccc(NC2CN(CCCF)C2)cc1)C(F)(F)F | 5.1 | – | – | –
27 | CC(F)(F)c1cc(F)c(F)cc1-c1sc2c(ccc3[nH]ncc32)c1Oc1ccc(NC2CN(CCCF)C2)cc1 | – | 7400 | – | –

Row | Compound | IC50 (MCF7) [nM] | IC50 [1] [nM] | EC50 (Estrogen receptor [2]) [nM] | IC50 (Estrogen receptor [3]) [nM]
28 | CC(F)(F)c1cc(F)ccc1-c1sc2c(ccc3[nH]ncc32)c1Oc1ccc(COCCN2CC(CF)C2)cc1 | 4.7 | – | > 1000 | –
29 | CC(F)(F)c1cc(F)ccc1-c1sc2c(ccc3[nH]ncc32)c1Oc1ccc(OC2CN(CCCF)C2)c(F)c1 | 0.8 | – | 1.3 | 1
30 | CC(F)(F)c1cc(Cl)ccc1-c1sc2c(ccc3[nH]ncc32)c1Oc1ccc(OC2CN(CCCC#N)C2)cc1 | 81.4 | – | – | –
31 | CC(F)(F)c1cc(F)ccc1-c1sc2c(ccc3[nH]ncc32)c1Oc1ccc(OC2CN(CCCF)C2)cc1F | 7.8 | – | – | –
32 | Oc1cccc(-c2sc3c(ccc4[nH]ncc43)c2Oc2ccc(OCCN3CC(CF)C3)cc2)c1 | > 1000 | – | – | –
33 | Cc1cc(Cl)cc(C)c1-c1sc2c(ccc3[nH]ncc32)c1Oc1ccc(OCCN2CC(CF)C2)cc1 | 29.5 | – | – | –
34 | CC(F)(F)c1cc(F)ccc1-c1sc2c(ccc3[nH]ncc32)c1Oc1ccc(/C=C/CN2CC(CF)C2)cc1 | 7.9 | – | – | –
35 | CC(F)(F)c1cc(F)ccc1-c1sc2cc(B(O)O)ccc2c1Oc1ccc(OCCN2CC(CF)C2)cc1 | 1.9 | – | 1.2 | –
36 | COc1cc(Oc2c(-c3cc(F)c(F)cc3C(C)(F)F)sc3c2ccc2[nH]ncc23)ccc1NC1CN(CCCF)C1 | 1.7 | 15600 | 2.6 | 2.5
37 | COc1cc(Oc2c(-c3ccc(F)cc3CC(F)(F)F)sc3c2ccc2[nH]ncc23)ccc1NC1CN(CCCF)C1 | 1.7 | – | 2.2 | 1.1
38 | COc1cc(Oc2c(-c3ccc(F)cc3C(C)(F)F)sc3c2ccc2[nH]ncc23)ccc1OC1CN(CCCF)C1 | 0.9 | > 40000 | 0.4 | 0.6
39 | FCC1CN(CCOc2ccc(Oc3c(-c4ccc(OC(F)(F)F)cc4F)sc4c3ccc3[nH]ncc34)cc2)C1 | 38.5 | – | – | –
40 | Cc1cc(F)cc(C)c1-c1sc2c(ccc3[nH]ncc32)c1Oc1ccc(OCCN2CC(CF)C2)cc1 | 27.3 | – | – | –
41 | FCCCN1CC(Nc2ccc(Oc3c(-c4ccc(F)cc4CC(F)(F)F)sc4c3ccc3[nH]ncc34)cc2)C1 | 0.8 | – | 2.2 | 1.3
42 | CC(F)(F)c1cc(Cl)ccc1-c1sc2cc(C(=O)O)ccc2c1Oc1ccc(NC2CN(CCCF)C2)cc1 | 5.9 | – | 13.1 | –
43 | FCC1CN(CCOc2ccc(Oc3c(-c4ccc(C(F)(F)F)cc4F)sc4c3ccc3[nH]ncc34)cc2)C1 | 148 | – | – | –
44 | CC(F)(F)c1cc(F)ccc1-c1sc2c(ccc3[nH]ncc32)c1Oc1ccc(OCCN2CC(CF)C2)cc1F | 3.3 | – | – | –
45 | CC(F)(F)c1cc(Cl)ccc1-c1sc2cc(C(=O)O)ccc2c1Oc1ccc(OCCN2CC(CF)C2)cc1 | 4.4 | – | 2.6 | –
46 | CC(C)(F)c1cc(F)ccc1-c1sc2c(ccc3[nH]ncc32)c1Oc1ccc(OC2CN(CCCF)C2)c(F)c1 | – | > 40000 | – | –
47 | CC(F)(F)c1cc(F)ccc1-c1sc2cc(B(O)O)ccc2c1Oc1ccc(OCCN2CC(CC#N)C2)cc1 | 2.7 | – | – | –
48 | FCC1CN(CCOc2ccc(Oc3c(-c4ccc(F)cc4C4CC4)sc4c3ccc3[nH]ncc34)cc2)C1 | 8.8 | – | – | –
49 | CC(F)(F)c1cc(Cl)ccc1-c1sc2c(ccc3[nH]ncc32)c1Oc1ccc(N[C@@H]2CCN(CCCF)C2)cc1 | 0.6 | – | 1 | –
50 | CC(F)(F)c1cc(F)ccc1-c1sc2c(ccc3[nH]ncc32)c1Oc1ccc(NC2CN(CCCF)C2)c(F)c1 | 0.8 | 27500 | 1.3 | 1.1
51 | CC(F)(F)c1cc(F)ccc1-c1sc2c(ccc3[nH]ncc32)c1Oc1ccc(OCCN2CC3C(C2)C3(F)F)cc1 (stereo not given) | 7.6 | – | > 1000 | –
52 | CC(F)(c1cc(F)ccc1-c1sc2c(ccc3[nH]ncc32)c1Oc1ccc(NC2CN(CCCF)C2)cc1)C(F)(F)F (stereo not given) | 1.7 | – | 6.6 | –
53 | COc1cc(Oc2c(-c3ccc(F)cc3CC(F)(F)F)sc3c2ccc2[nH]ncc23)ccc1OC1CN(CCCF)C1 | 0.6 | – | 1.8 | 0.9
